Assay results from patent publication US5698522A, “6-position modified decapeptide LHRH antagonists” (Abbott Laboratories, priority 1995, dated 1997).
*1 amine or outer side, *2 acyl side, *3 side chain or, on linkers, in order; H or OH if unused. Where a SMILES comes first, the peptide text is derived from it. Side-chain parts run from the residue outwards. [ ]: non-standard residue; d: D form. The star is where a group is joined. NMePhe(4-NH(5-NH2-Trz-3-yl)) = CN[C@@H](Cc1ccc(Nc2n[nH]c(N)n2)cc1)C(=O)O; Shikimoyl = O=C(C1=C[C@@H](O)[C@@H](O)[C@H](O)C1)*; X5 = O=C(NCCCN*)C1=C[C@@H](O)[C@@H](O)[C@H](O)C1; dPhe(4-Cl) = N[C@H](Cc1ccc(Cl)cc1)C(=O)O; d2Nal = N[C@H](Cc1ccc2ccccc2c1)C(=O)O; Lys(iPr) = CC(C)NCCCC[C@H](N)C(=O)O; NMeY = CN[C@@H](Cc1ccc(O)cc1)C(=O)O; d3Pal = N[C@H](Cc1cccnc1)C(=O)O; Nicotinoyl = O=C(c1cccnc1)*; Picolinoyl = O=C(c1ccccn1)*; CO = O=C([*:1])[*:2]; Ava = NCCCCC(=O)O; azaGly = NNC(=O)O; βAla = NCCC(=O)O; Sar = CNCC(=O)O

Molecular target: T1, LHRH receptor (Rattus norvegicus, UniProt P30969)
T1 construct: endogenous in cells
T1 sequence (P30969 1-327): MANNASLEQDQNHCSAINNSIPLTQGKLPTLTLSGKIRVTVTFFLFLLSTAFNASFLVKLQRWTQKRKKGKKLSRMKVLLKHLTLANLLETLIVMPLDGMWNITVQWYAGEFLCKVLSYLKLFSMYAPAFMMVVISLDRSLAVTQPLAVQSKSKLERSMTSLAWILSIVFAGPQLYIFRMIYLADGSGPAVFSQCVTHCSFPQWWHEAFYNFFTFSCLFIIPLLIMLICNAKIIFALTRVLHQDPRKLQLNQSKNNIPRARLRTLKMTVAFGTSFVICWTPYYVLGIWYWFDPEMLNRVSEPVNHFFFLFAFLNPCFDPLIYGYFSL
Experiment: in vitro LHRH antagonist potency (pA2) against the agonist leuprolide
Format: cell-based
Conditions: negative logarithm of the antagonist concentration which shifts the response curve produced by the agonist leuprolide to two-fold higher concentration
Procedure, shortened: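 Functional antagonism against the agonist leuprolide. pA2 is the negative log of antagonist concentration that shifts the leuprolide response curve to twofold higher concentration.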

Compound | Kb [pM]
CC(=O)N[C@H](Cc1ccc2ccccc2c1)C(=O)N[C@H](Cc1ccc(Cl)cc1)C(=O)N[C@H](Cc1cccnc1)C(=O)N[C@@H](CO)C(=O)N(C)[C@@H](Cc1ccc(O)cc1)C(=O)N[C@H](CCCCNC(=O)NCCCNC(=O)C1=C[C@@H](O)[C@@H](O)[C@H](O)C1)C(=O)N[C@@H](CC(C)C)C(=O)N[C@@H](CCCNC(=N)N)C(=O)N1CCC[C@H]1C(=O)N[C@H](C)C(N)=O [Example 42, NAc-D2Nal^1 -D4ClPhe^2 -D3Pal^3 -Ser^4 -NMeTyr^5 -DLys[N-epsilon-(N'-Carbonyl-Diaminopropane-N"-Shikimyl)]^6 -Leu^7 -Arg^8 -Pro^9 -DAla^10 NH2] (Ac-[d2Nal][dPhe(4-Cl)][d3Pal]S[NMeY][dK]([CO-X5])LRP[dA]-NH2) | 25.7
CC(=O)N[C@H](Cc1ccc2ccccc2c1)C(=O)N[C@H](Cc1ccc(Cl)cc1)C(=O)N[C@H](Cc1cccnc1)C(=O)N[C@@H](CO)C(=O)N(C)[C@@H](Cc1ccc(O)cc1)C(=O)N[C@H](CCCCNC(=O)CCCCNC(=O)c1cccnc1)C(=O)N[C@@H](CC(C)C)C(=O)N[C@@H](CCCCNC(C)C)C(=O)N1CCC[C@H]1C(=O)N[C@H](C)C(N)=O [Example 43, NAc-D2Nal^1 -D4ClPhe^2 -D3Pal^3 -Ser^4 -NMeTyr^5 -DLys(N-epsilon-5-Aminovaleryl-Nicotinyl)^6 -Leu^7 -Lys(N-epsilon-Isopropyl)^8 -Pro^9 -DAla^10 NH2] (Ac-[d2Nal][dPhe(4-Cl)][d3Pal]S[NMeY][dK]([Ava-Nicotinoyl])L[Lys(iPr)]P[dA]-NH2) | 8.51
CC(=O)N[C@H](Cc1ccc2ccccc2c1)C(=O)N[C@H](Cc1ccc(Cl)cc1)C(=O)N[C@H](Cc1cccnc1)C(=O)N[C@@H](CO)C(=O)N(C)[C@@H](Cc1ccc(Nc2n[nH]c(N)n2)cc1)C(=O)N[C@H](CCCCNC(=O)CNC(=O)c1cccnc1)C(=O)N[C@@H](CC(C)C)C(=O)N[C@@H](CCCCNC(C)C)C(=O)N1CCC[C@H]1C(=O)N[C@H](C)C(N)=O [Example 45, NAc-D2Nal^1 -D4ClPhe^2 -D3Pal^3 -Ser^4 -NMePhe(Atz)^5 -DLys(N-epsilon-Gly-Nicotinyl)^6 -Leu^7 -Lys(N-epsilon-Isopropyl)^8 -Pro^9 -DAla^10 NH2] (Ac-[d2Nal][dPhe(4-Cl)][d3Pal]S[NMePhe(4-NH(5-NH2-Trz-3-yl))][dK]([Gly-Nicotinoyl])L[Lys(iPr)]P[dA]-NH2) | 4.17
CC(=O)N[C@H](Cc1ccc2ccccc2c1)C(=O)N[C@H](Cc1ccc(Cl)cc1)C(=O)N[C@H](Cc1cccnc1)C(=O)N[C@@H](CO)C(=O)N(C)[C@@H](Cc1ccc(Nc2n[nH]c(N)n2)cc1)C(=O)N[C@H](CCCCNC(=O)NNC(=O)c1cccnc1)C(=O)N[C@@H](CC(C)C)C(=O)N[C@@H](CCCCNC(C)C)C(=O)N1CCC[C@H]1C(=O)N[C@H](C)C(N)=O [Example 46, NAc-D2Nal^1 -D4ClPhe^2 -D3Pal^3 -Ser^4 -NMePhe(Atz)^5 -DLys(N-epsilon-Azagly-Nicotinyl)^6 -Leu^7 -Lys(N-epsilon-Isopropyl)^8 -Pro^9 -DAla^10 NH2] (Ac-[d2Nal][dPhe(4-Cl)][d3Pal]S[NMePhe(4-NH(5-NH2-Trz-3-yl))][dK]([azaGly-Nicotinoyl])L[Lys(iPr)]P[dA]-NH2) | 11
CC(=O)N[C@H](Cc1ccc2ccccc2c1)C(=O)N[C@H](Cc1ccc(Cl)cc1)C(=O)N[C@H](Cc1cccnc1)C(=O)N[C@@H](CO)C(=O)N(C)[C@@H](Cc1ccc(O)cc1)C(=O)N[C@H](CCCCNC(=O)CNC(=O)c1ccccn1)C(=O)N[C@@H](CC(C)C)C(=O)N[C@@H](CCCNC(=N)N)C(=O)N1CCC[C@H]1C(=O)N[C@H](C)C(N)=O [Example 48a, NAc-D2Nal^1 -D4ClPhe^2 -D3Pal^3 -Ser^4 -NMeTyr^5 -DLys(N-epsilon-Gly-Picolinyl)^6 -Leu^7 -Arg^8 -Pro^9 -DAla^10 NH2] (Ac-[d2Nal][dPhe(4-Cl)][d3Pal]S[NMeY][dK]([Gly-Picolinoyl])LRP[dA]-NH2) | 7.94
CC(=O)N[C@H](Cc1ccc2ccccc2c1)C(=O)N[C@H](Cc1ccc(Cl)cc1)C(=O)N[C@H](Cc1cccnc1)C(=O)N[C@@H](CO)C(=O)N(C)[C@@H](Cc1ccc(O)cc1)C(=O)N[C@H](CCCCNC(=O)[C@@H](CO)NC(=O)c1ccccn1)C(=O)N[C@@H](CC(C)C)C(=O)N[C@@H](CCCNC(=N)N)C(=O)N1CCC[C@H]1C(=O)N[C@H](C)C(N)=O [Example 48b, NAc-D2Nal^1 -D4ClPhe^2 -D3Pal^3 -Ser^4 -NMeTyr^5 -DLys(N-epsilon-D-Ser-Picolinyl)^6 -Leu^7 -Arg^8 -Pro^9 -DAla^10 NH2] (Ac-[d2Nal][dPhe(4-Cl)][d3Pal]S[NMeY][dK]([dS-Picolinoyl])LRP[dA]-NH2) | 37.2
CC(=O)N[C@H](Cc1ccc2ccccc2c1)C(=O)N[C@H](Cc1ccc(Cl)cc1)C(=O)N[C@H](Cc1cccnc1)C(=O)N[C@@H](CO)C(=O)N(C)[C@@H](Cc1ccc(O)cc1)C(=O)N[C@H](CCCCNC(=O)[C@H](NC(=O)C1=C[C@@H](O)[C@@H](O)[C@H](O)C1)[C@H](C)O)C(=O)N[C@@H](CC(C)C)C(=O)N[C@@H](CCCNC(=N)N)C(=O)N1CCC[C@H]1C(=O)N[C@H](C)C(N)=O [Example 48c, NAc-D2Nal^1 -D4ClPhe^2 -D3Pal^3 -Ser^4 -NMeTyr^5 -DLys(N-epsilon-D-Thr-Shikimyl)^6 -Leu^7 -Arg^8 -Pro^9 -DAla^10 NH2] (Ac-[d2Nal][dPhe(4-Cl)][d3Pal]S[NMeY][dK]([dT-Shikimoyl])LRP[dA]-NH2) | 28.8
CC(=O)N[C@H](Cc1ccc2ccccc2c1)C(=O)N[C@H](Cc1ccc(Cl)cc1)C(=O)N[C@H](Cc1cccnc1)C(=O)N[C@@H](CO)C(=O)N(C)[C@@H](Cc1ccc(O)cc1)C(=O)N[C@H](CCCCNC(=O)[C@@H](C)NC(=O)C1=C[C@@H](O)[C@@H](O)[C@H](O)C1)C(=O)N[C@@H](CC(C)C)C(=O)N[C@@H](CCCNC(=N)N)C(=O)N1CCC[C@H]1C(=O)N[C@H](C)C(N)=O [Example 48d, NAc-D2Nal^1 -D4ClPhe^2 -D3Pal^3 -Ser^4 -NMeTyr^5 -DLys(N-epsilon-D-Ala-Shikimyl)^6 -Leu^7 -Arg^8 -Pro^9 -DAla^10 NH2] (Ac-[d2Nal][dPhe(4-Cl)][d3Pal]S[NMeY][dK]([dA-Shikimoyl])LRP[dA]-NH2) | 12.6
CC(=O)N[C@H](Cc1ccc2ccccc2c1)C(=O)N[C@H](Cc1ccc(Cl)cc1)C(=O)N[C@H](Cc1cccnc1)C(=O)N[C@@H](CO)C(=O)N(C)[C@@H](Cc1ccc(O)cc1)C(=O)N[C@H](CCCCNC(=O)CN(C)C(=O)C1=C[C@@H](O)[C@@H](O)[C@H](O)C1)C(=O)N[C@@H](CC(C)C)C(=O)N[C@@H](CCCNC(=N)N)C(=O)N1CCC[C@H]1C(=O)N[C@H](C)C(N)=O [Example 48f, NAc-D2Nal^1 -D4ClPhe^2 -D3Pal^3 -Ser^4 -NMeTyr^5 -DLys(N-epsilon-Sar-Shikimyl)^6 -Leu^7 -Arg^8 -Pro^9 -DAla^10 NH2] (Ac-[d2Nal][dPhe(4-Cl)][d3Pal]S[NMeY][dK]([Sar-Shikimoyl])LRP[dA]-NH2) | 12.6
CC(=O)N[C@H](Cc1ccc2ccccc2c1)C(=O)N[C@H](Cc1ccc(Cl)cc1)C(=O)N[C@H](Cc1cccnc1)C(=O)N[C@@H](CO)C(=O)N(C)[C@@H](Cc1ccc(O)cc1)C(=O)N[C@H](CCCCNC(=O)CCNC(=O)C1=C[C@@H](O)[C@@H](O)[C@H](O)C1)C(=O)N[C@@H](CC(C)C)C(=O)N[C@@H](CCCNC(=N)N)C(=O)N1CCC[C@H]1C(=O)N[C@H](C)C(N)=O [Example 48g, NAc-D2Nal^1 -D4ClPhe^2 -D3Pal^3 -Ser^4 -NMeTyr^5 -DLys(N-epsilon-Beta-alanyl-Shikimyl)^6 -Leu^7 -Arg^8 -Pro^9 -DAla^10 NH2] (Ac-[d2Nal][dPhe(4-Cl)][d3Pal]S[NMeY][dK]([βAla-Shikimoyl])LRP[dA]-NH2) | 12.6
CC(=O)N[C@H](Cc1ccc2ccccc2c1)C(=O)N[C@H](Cc1ccc(Cl)cc1)C(=O)N[C@H](Cc1cccnc1)C(=O)N[C@@H](CO)C(=O)N(C)[C@@H](Cc1ccc(O)cc1)C(=O)N[C@H](CCCCNC(=O)[C@@H](Cc1c[nH]cn1)NC(=O)C1=C[C@@H](O)[C@@H](O)[C@H](O)C1)C(=O)N[C@@H](CC(C)C)C(=O)N[C@@H](CCCNC(=N)N)C(=O)N1CCC[C@H]1C(=O)N[C@H](C)C(N)=O [Example 48h, NAc-D2Nal^1 -D4ClPhe^2 -D3Pal^3 -Ser^4 -NMeTyr^5 -DLys(N-epsilon-D-His-Shikimyl)^6 -Leu^7 -Arg^8 -Pro^9 -DAla^10 NH2] (Ac-[d2Nal][dPhe(4-Cl)][d3Pal]S[NMeY][dK]([dH-Shikimoyl])LRP[dA]-NH2) | 38
CC(=O)N[C@H](Cc1ccc2ccccc2c1)C(=O)N[C@H](Cc1ccc(Cl)cc1)C(=O)N[C@H](Cc1cccnc1)C(=O)N[C@@H](CO)C(=O)N(C)[C@@H](Cc1ccc(O)cc1)C(=O)N[C@H](CCCCNC(=O)[C@@H](Cc1cccnc1)NC(=O)C1=C[C@@H](O)[C@@H](O)[C@H](O)C1)C(=O)N[C@@H](CC(C)C)C(=O)N[C@@H](CCCNC(=N)N)C(=O)N1CCC[C@H]1C(=O)N[C@H](C)C(N)=O [Example 48i, NAc-D2Nal^1 -D4ClPhe^2 -D3Pal^3 -Ser^4 -NMeTyr^5 -DLys(N-epsilon-D-3Pal-Shikimyl)^6 -Leu^7 -Arg^8 -Pro^9 -DAla^10 NH2] (Ac-[d2Nal][dPhe(4-Cl)][d3Pal]S[NMeY][dK]([d3Pal-Shikimoyl])LRP[dA]-NH2) | 36.3
